In general, IC50 refers to the concentration needed to halve the response being measured. One may read the EC50 as the concentration at which the effect is half-maximal.

Where two headings read alike, the source gives them in different places. Bounds are passed on as bounds.

We go through seven molecules from patent US20160355530A1, “HEPATITIS C INHIBITORS AND USES THEREOF” (AbbVie Inc., priority 2010, published 2016).

The target in assay [1] is T1, HCV NS5B polymerase 1a-H77 (Hepatitis C virus genotype 1a, UniProt P27958).
T1 construct: six-histidine tag; made in house; host or cells: E. coli
T1 sequence (P27958 2421-2990): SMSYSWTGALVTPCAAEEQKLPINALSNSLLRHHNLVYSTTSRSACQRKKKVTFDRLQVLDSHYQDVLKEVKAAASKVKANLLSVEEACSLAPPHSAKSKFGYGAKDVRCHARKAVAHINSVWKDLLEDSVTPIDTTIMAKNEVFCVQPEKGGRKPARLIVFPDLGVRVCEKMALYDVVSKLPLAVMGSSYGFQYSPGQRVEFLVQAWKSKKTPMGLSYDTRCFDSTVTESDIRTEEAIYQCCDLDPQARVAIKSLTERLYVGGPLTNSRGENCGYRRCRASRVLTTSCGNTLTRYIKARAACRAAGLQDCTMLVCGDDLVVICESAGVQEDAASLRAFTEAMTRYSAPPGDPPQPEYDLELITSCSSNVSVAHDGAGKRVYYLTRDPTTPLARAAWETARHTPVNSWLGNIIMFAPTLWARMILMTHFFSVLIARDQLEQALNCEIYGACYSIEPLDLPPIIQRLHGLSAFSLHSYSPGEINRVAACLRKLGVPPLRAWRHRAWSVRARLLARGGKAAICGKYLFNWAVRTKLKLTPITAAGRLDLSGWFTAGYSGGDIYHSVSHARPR
Briefly: biochemical. The settings on record: enzyme, strain 1a H77; read-out: HCV Polymerase Strain 1a H77 IC50. Also noted: species or system HCV genotype 1a. An outline of the steps: (§1)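 Incorporation of [3H]UTP (0.284 μM), alongside 20 μM each CTP and ATP, into RNA copied from a 5 nM 2.1 kb genotype 1b negative-strand template was measured after 3 h at 30° C using purified His-tagged NS5B truncated at residue 570. Product was spermine-precipitated, filtered and scintillation-counted; nonlinear regression gave IC50.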

Assay [2] addresses T2, HCV NS5B polymerase 1a-H77-C316Y (Hepatitis C virus genotype 1a, UniProt P27958, C2736Y).
T2 construct: six-histidine tag; made in house; host or cells: E. coli
Kind of assay: biochemical. Also noted: species or system HCV genotype 1a. An outline of the steps: as §1

The test system of assay [3] is HCV NS5B polymerase 1a-H77-C316Y. Briefly: biochemical. Details: species or system HCV genotype 1a. The settings on record: ratio of enzyme IC50s, 1a H77-C316Y / 1a H77. An outline of the steps: as §1
The target in assay [4] is T3, HCV NS5B polymerase 1b BK strain (Hepatitis C virus genotype 1b, UniProt P26663).
T3 construct: six-histidine tag; made in house; host or cells: E. coli
T3 sequence (P26663 2420-2989): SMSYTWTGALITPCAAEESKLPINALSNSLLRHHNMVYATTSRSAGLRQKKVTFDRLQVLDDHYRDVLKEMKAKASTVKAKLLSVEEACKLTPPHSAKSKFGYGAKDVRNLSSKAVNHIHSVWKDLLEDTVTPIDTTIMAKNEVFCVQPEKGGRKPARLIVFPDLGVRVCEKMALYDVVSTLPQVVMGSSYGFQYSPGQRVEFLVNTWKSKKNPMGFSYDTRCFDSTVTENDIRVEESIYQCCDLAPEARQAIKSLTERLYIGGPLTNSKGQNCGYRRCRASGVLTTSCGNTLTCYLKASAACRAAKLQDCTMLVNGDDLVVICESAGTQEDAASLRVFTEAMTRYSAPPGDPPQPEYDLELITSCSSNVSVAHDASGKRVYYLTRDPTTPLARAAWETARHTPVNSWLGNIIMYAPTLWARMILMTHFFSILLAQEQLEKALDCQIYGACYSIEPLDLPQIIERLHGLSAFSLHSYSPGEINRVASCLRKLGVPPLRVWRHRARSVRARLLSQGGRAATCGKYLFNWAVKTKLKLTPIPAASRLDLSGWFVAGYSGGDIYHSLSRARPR
Briefly: HCV NS5B polymerase enzymatic inhibition assay, strain 1b BK. It counts as biochemical. The settings on record: enzyme, strain 1b BK; read-out: HCV Polymerase Strain 1b BK IC50. An outline of the steps:
as §1

In assay [5] the test system is HCV 1a-H77 subgenomic replicon. Briefly: microbe, parasite or virus in culture. The assay is classed as cell-based, HCV genotype 1a. The settings on record: Hepatitis C virus, stable replicon.
The subject of assay [6] is HCV 1b-BB7 subgenomic replicon. Briefly: microbe, parasite or virus in culture. The settings on record: Hepatitis C virus, stable replicon. The assay is classed as cell-based, HCV genotype 1b. On the technique in general: In antiviral work, replicon cells carry a viral genome segment that copies itself.
The subject of assay [7] is chimeric replicon with 2a-J6CF-derived NS5B. Briefly: microbe, parasite or virus in culture. The assay is classed as cell-based, HCV genotype 2a. The settings on record: Hepatitis C virus, read-out: 2a chimera 5% FBS EC50.
Assay [8] relates to chimeric replicon with genotype 2b NS5B. Kind of assay: microbe, parasite or virus in culture. It counts as cell-based, HCV genotype 2b. The settings on record: Hepatitis C virus, read-out: 2b chimera 5% FBS EC50.
Assay [9] deals with chimeric replicon with genotype 3a NS5B. Briefly: microbe, parasite or virus in culture. The assay is classed as cell-based, HCV genotype 3a. The settings on record: Hepatitis C virus, read-out: 3a chimera 5% FBS EC50.
Assay [10] has as its system chimeric replicon with genotype 4a NS5B. Kind of assay: microbe, parasite or virus in culture. It counts as cell-based, HCV genotype 4a. The settings on record: Hepatitis C virus, read-out: 4a chimera 5% FBS EC50.
The test system of assay [11] is HCV 1a-H77 transient subgenomic replicon in Huh-7 derived cell line. Briefly: microbe, parasite or virus in culture. It counts as cell-based, HCV genotype 1a. The settings on record: Hepatitis C virus, Huh-7; transient replicon, 5% FBS; read-out: Transient Replicon 1a H77 5% FBS EC50. An outline of the steps:
(§2)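 Subgenomic replicon RNA (no Neo gene) electroporated into Huh-7-derived cells, plated at 5×10^3 cells/well; a 4 h plate gauged transfection efficiency. Cells exposed to 3-fold compound dilutions (0.5% DMSO) for 4 days at 37° C, then lysed for luciferase readout; EC50 calculated.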

Assay [12] deals with HCV 1a-H77-C316Y transient subgenomic replicon in Huh-7 derived cell line. Briefly: microbe, parasite or virus in culture. It counts as cell-based, HCV genotype 1a. The settings on record: for EC50: Hepatitis C virus, Huh-7, read-out: Transient Replicon 1a H77-C316Y 5% FBS EC50; for Transient Replicon Fold Resistance C316Y/1a: ratio of transient replicon EC50s, C316Y / 1a H77. An outline of the steps: as §2

The mark [13] stands for this setting: 5% FBS, absence of human plasma, read-out: Stable Replicon 1a H77 5% FBS EC50.
Setting [14] is: strain 1a H77, 5% FBS + 40% human plasma, read-out: 1a H77 5% FBS + 40% Human Plasma EC50.
Setting [15] is: strain 1a H77, 5% FBS, no human plasma, read-out: 1a H77 5% FBS EC50.
Where [16] appears, read: strain 1a H77, 5% FBS, read-out: 1a H77 5% FBS EC50.
[17] abbreviates: strain 1b BB7, 5% FBS + 40% human plasma, read-out: 1b BB7 5% FBS + 40% Human Plasma EC50.
Where [18] appears, read: strain 1b BB7, 5% FBS, no human plasma, read-out: 1b BB7 5% FBS EC50.
Where [19] appears, read: strain 1b BB7, 5% FBS, read-out: 1b BB7 5% FBS EC50.

T2 sequence (P27958 2421-2990 C2736Y): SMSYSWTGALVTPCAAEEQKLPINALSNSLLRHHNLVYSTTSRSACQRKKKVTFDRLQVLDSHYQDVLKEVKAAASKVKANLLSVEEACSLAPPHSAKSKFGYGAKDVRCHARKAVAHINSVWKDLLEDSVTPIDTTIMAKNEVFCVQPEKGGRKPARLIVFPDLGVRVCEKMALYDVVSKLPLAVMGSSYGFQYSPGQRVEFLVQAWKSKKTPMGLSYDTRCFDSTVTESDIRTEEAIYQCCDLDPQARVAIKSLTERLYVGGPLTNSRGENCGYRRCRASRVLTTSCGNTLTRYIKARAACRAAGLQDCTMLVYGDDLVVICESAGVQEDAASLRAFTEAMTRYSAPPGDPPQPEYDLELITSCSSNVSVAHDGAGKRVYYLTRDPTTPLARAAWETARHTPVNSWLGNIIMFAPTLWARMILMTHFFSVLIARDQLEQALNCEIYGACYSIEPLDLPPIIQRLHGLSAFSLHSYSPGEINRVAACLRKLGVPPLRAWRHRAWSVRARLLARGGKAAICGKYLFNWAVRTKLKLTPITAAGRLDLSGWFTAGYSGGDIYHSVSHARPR

Regarding `CC(C)CCN(c1cc2oc(-c3ccc(F)cc3)c(-c3ncc[nH]3)c2cc1C1CC1)S(C)(=O)=O` [Example 4, N-[5-cyclopropyl-2-(4-fluorophenyl)-3-(1H-imidazol-2-yl)-1-benzofuran-6-yl]-N-(3-methylbutyl)methanesulfonamide], the IC50 in assay [1] is 5.3 nM; in assay [2], 57 nM; in assay [4], 11 nM. Further, the “C316Y/1a Fold Resistance” value in assay [3] came out at 11 fold. The EC50 in [5] (setting [13]) is 29 nM; in assay [5] (setting [14]) it was 512 nM; in assay [5] (setting [15]), 29 nM; in [5] (setting [16]), 29 nM; in assay [6] (setting [17]) it was 297 nM; in [6] (setting [18]), 25 nM. In addition, the half-maximal effective concentration (EC50) in assay [6] (setting [19]) is 25 nM; in assay [7] it was 156 nM; in [8], 270 nM; in assay [9] it was 11 nM; in [10] it was 169 nM; in [11], 7.9 nM. Further, the EC50 in assay [12] stood at 69.4 nM. Moreover, the “Transient Replicon Fold Resistance C316Y/1a” value in assay [12] stood at 9 fold.
Regarding `CS(=O)(=O)Nc1cc2oc(-c3ccc(F)cc3)c(C3=NOCN3)c2cc1C1CC1` [Example 173, N-[5-cyclopropyl-3-(4,5-dihydro-1,2,4-oxadiazol-3-yl)-2-(4-fluorophenyl)-1-benzofuran-6-yl]methanesulfonamide], the IC50 in [1] stood at 7.1 nM; in assay [2] it was 1400 nM; in assay [4] it was 86 nM. Also, the “C316Y/1a Fold Resistance” value in assay [3] was found to be 198 fold. Also, the EC50 in [5] (setting [13]) was 809 nM; in [5] (setting [14]) it was 9720 nM; in assay [5] (setting [15]), 809 nM; in [5] (setting [16]), 809 nM; in [6] (setting [17]), 5060 nM; in [6] (setting [18]), 301 nM. Besides, the EC50 was 301 nM in [6] (setting [19]); 1000 nM in [7]; 1000 nM in [8]; 146 nM in assay [9]; greater than 1000 nM in [10]; 1000 nM in assay [11]. Also, the EC50 in [12] came to 10000 nM. Also, the “Transient Replicon Fold Resistance C316Y/1a” value in assay [12] is recorded as 10 fold.
For the molecule `CS(=O)(=O)CCCN(c1cc2oc(-c3ccc(F)cc3)c(-c3ncc[nH]3)c2cc1C1CC1)S(C)(=O)=O` [Example 101, N-[5-cyclopropyl-2-(4-fluorophenyl)-3-(1H-imidazol-2-yl)-1-benzofuran-6-yl]-N-[3-(methylsulfonyl)propyl]methanesulfonamide], the results for the IC50 in assay [1], in [2] and in assay [4] were 5 nM, 46 nM and 11 nM, respectively. In [3], the “C316Y/1a Fold Resistance” value was 9 fold. The EC50 in assay [5] (setting [13]) was found to be 4.1 nM; in [5] (setting [14]), 110 nM; in [5] (setting [15]), 4.1 nM; in assay [5] (setting [16]) it was 4.12 nM; in assay [6] (setting [17]), 75 nM; in assay [6] (setting [18]), 5.9 nM. Moreover, the EC50 in assay [6] (setting [19]) worked out at 5.9 nM; in assay [7] it was 33 nM; in [8], 33.4 nM; in [9], 4.3 nM; in assay [10], 56.4 nM; in [11] it was 3.7 nM. For the same molecule, the EC50 in assay [12] is 102 nM. In addition, in assay [12], the “Transient Replicon Fold Resistance C316Y/1a” value is 28 fold.
For `CS(=O)(=O)N(CCCC(=O)O)c1cc2oc(-c3ccc(F)cc3)c(C3=NOCN3)c2cc1C1CC1` [Example 157, 4-{[5-cyclopropyl-3-(4,5-dihydro-1,2,4-oxadiazol-3-yl)-2-(4-fluorophenyl)-1-benzofuran-6-yl](methylsulfonyl)amino}butanoic acid], the half-inhibitory concentration (IC50) stood at 5 nM in [1], 54 nM in assay [2] and 16 nM in assay [4]. For the same molecule, the “C316Y/1a Fold Resistance” value in [3] was determined as 11 fold. Besides, the concentration giving a half-maximal response (EC50) is 109 nM in assay [5] (setting [13]); 2790 nM in assay [5] (setting [14]); 109 nM in assay [5] (setting [15]); 109 nM in [5] (setting [16]); 2460 nM in [6] (setting [17]); 94.2 nM in assay [6] (setting [18]). The EC50 in assay [6] (setting [19]) was 94.2 nM; in assay [7] it was 1000 nM; in [8] it was 1000 nM; in assay [9], 108 nM; in assay [10], greater than 1000 nM; in assay [11], 111 nM. Moreover, in assay [12], the EC50 stood at 6890 nM. In addition, the “Transient Replicon Fold Resistance C316Y/1a” value in assay [12] is listed as 62 fold.
As to `CS(=O)(=O)N(Cc1cnc(-c2ccc3nc[nH]c3c2)s1)c1ccc2c(-c3ncc[nH]3)c(-c3ccccc3)oc2c1` [Example 3, N-{[2-(1H-benzimidazol-6-yl)-1,3-thiazol-5-yl]methyl}-N-[3-(1H-imidazol-2-yl)-2-phenyl-1-benzofuran-6-yl]methanesulfonamide], the IC50 turned out to be 3 nM in assay [1], 11 nM in assay [2] and 10 nM in assay [4]. In addition, in [3], the “C316Y/1a Fold Resistance” value came out at 4 fold. The EC50 in [5] (setting [13]) was 48 nM; in assay [5] (setting [14]), 7930 nM; in [5] (setting [15]), 48 nM; in assay [5] (setting [16]), 48 nM; in assay [6] (setting [17]), 760 nM; in assay [6] (setting [18]), 5 nM. In addition, the EC50 in [6] (setting [19]) turned out to be 5 nM; in assay [7] it was 29.3 nM; in assay [8], 81.8 nM; in assay [9] it was 2.8 nM; in assay [10], 135 nM; in [11] it was 21.3 nM. For the same molecule, in assay [12], the EC50 is 109 nM. Moreover, the “Transient Replicon Fold Resistance C316Y/1a” value in assay [12] stood at 5 fold.
In the case of `CS(=O)(=O)N(CC#N)c1cc2oc(-c3ccc(F)cc3)c(-c3ncc[nH]3)c2cc1C1CC1` [Example 63, N-(cyanomethyl)-N-[5-cyclopropyl-2-(4-fluorophenyl)-3-(1H-imidazol-2-yl)-1-benzofuran-6-yl]methanesulfonamide], the IC50 in assay [1] is 4.5 nM; in assay [2] it was 2100 nM; in assay [4] it was 47 nM. The “C316Y/1a Fold Resistance” value in assay [3] is on record as 470 fold. For the same molecule, the 50% effective concentration (EC50) in assay [5] (setting [13]) stood at 67 nM; in [5] (setting [14]) it was 1160 nM; in [5] (setting [15]), 67 nM; in assay [5] (setting [16]) it was 67 nM; in assay [6] (setting [17]), 195 nM; in [6] (setting [18]) it was 14.4 nM. The concentration for a half-maximal effect (EC50) was 14.4 nM in [6] (setting [19]); 131 nM in [7]; 108 nM in assay [8]; 6.8 nM in [9]; 702 nM in [10]; 75.6 nM in [11]. In addition, the EC50 in assay [12] worked out at 1900 nM. Also, in assay [12], the “Transient Replicon Fold Resistance C316Y/1a” value worked out at 25 fold.
Regarding `CC(C)CCN(c1cn2nc(-c3ccc(F)cc3)c(-c3ncc[nH]3)c2cc1C1CC1)S(C)(=O)=O` [Example 17, N-[5-cyclopropyl-2-(4-fluorophenyl)-3-(1H-imidazol-2-yl)pyrazolo[1,5-a]pyridin-6-yl]-N-(3-methylbutyl)methanesulfonamide], the figures for the 50% inhibitory concentration (IC50) in assay [1], in [2] and in [4] were 34.9 nM, 1800 nM and 438 nM, respectively. In assay [3], the “C316Y/1a Fold Resistance” value was determined as 52 fold. Moreover, the EC50 turned out to be 98.9 nM in [5] (setting [13]); 1200 nM in assay [5] (setting [14]); 98.9 nM in assay [5] (setting [15]); 98.9 nM in assay [5] (setting [16]); 395 nM in assay [6] (setting [17]); 57.2 nM in [6] (setting [18]). Also, the EC50 in [6] (setting [19]) was 57.2 nM; in assay [7] it was 1000 nM; in [8] it was 1000 nM; in assay [9] it was 148 nM; in [10] it was greater than 1000 nM; in assay [11] it was 55 nM. For the same molecule, the EC50 in [12] worked out at 838 nM. In addition, the “Transient Replicon Fold Resistance C316Y/1a” value in [12] was 15 fold.
